Experimental data from patent US4684664A, “Derivatives of β-(4-isocyano-1,2,3,4-diepoxycyclopentyl) acrylic acid” (Kureha Kagaku Kogyo Kabushiki Kaisha, priority 1984, dated 1987).
In brackets after ≈: the same amount, converted by molar mass.

What was measured:
Assay type in all cases: cell-based
[1] = system: Staphylococcus aureus FDA 209PJc-1; test: Antibacterial activity, agar-dilution MIC, organism No. 1; conditions: Organism No. 1, bouillon-agar
Summary of the method: (§1)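 Specimen is incorporated into bouillon-agar medium at graded levels and the organisms are tested on these plates. The lowest level preventing growth is taken as the MIC (μg/ml of medium).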

[2] = system: Staphylococcus aureus Terajima; test: Antibacterial activity, agar-dilution MIC, organism No. 2; conditions: Organism No. 2, bouillon-agar
Summary of the method: as §1

[3] = system: Staphylococcus aureus MS 353; test: Antibacterial activity, agar-dilution MIC, organism No. 3; conditions: Organism No. 3, bouillon-agar
Summary of the method: as §1

[4] = system: Streptococcus pyogenes Cook; test: Antibacterial activity, agar-dilution MIC, organism No. 4; conditions: Organism No. 4, bouillon-agar
Summary of the method: as §1

[5] = system: Escherichia coli NIHJ-JC-2; test: Antibacterial activity, agar-dilution MIC, organism No. 5; conditions: Organism No. 5, bouillon-agar
Summary of the method: as §1

[6] = system: Escherichia coli K12 C600 IAM 1264; test: Antibacterial activity, agar-dilution MIC, organism No. 6; conditions: Organism No. 6, bouillon-agar
Summary of the method: as §1

[7] = system: Klebsiella pneumoniae PCI-602; test: Antibacterial activity, agar-dilution MIC, organism No. 7; conditions: Organism No. 7, bouillon-agar
Summary of the method: as §1

[8] = system: Salmonella typhimurium IID 971; test: Antibacterial activity, agar-dilution MIC, organism No. 8; conditions: Organism No. 8, bouillon-agar
Summary of the method: as §1

[9] = system: Salmonella typhi 901; test: Antibacterial activity, agar-dilution MIC, organism No. 9
Summary of the method: as §1

[10] = system: Salmonella paratyphi-A 1015; test: Antibacterial activity, agar-dilution MIC, organism No. 10
Summary of the method: as §1

[11] = system: Salmonella shottmuelleri 8006; test: Antibacterial activity, agar-dilution MIC, organism No. 11; conditions: Organism No. 11, bouillon-agar
Summary of the method: as §1

[12] = system: Salmonella enteritidis G 14; test: Antibacterial activity, agar-dilution MIC, organism No. 12; conditions: Organism No. 12, bouillon-agar
Summary of the method: as §1

[13] = system: Serratia marcescens IAM 1184; test: Antibacterial activity, agar-dilution MIC, organism No. 13; conditions: Organism No. 13, bouillon-agar
Summary of the method: as §1

[14] = system: Bacillus subtilis ATCC 6633; test: Antibacterial activity, agar-dilution MIC, organism No. 14; conditions: Organism No. 14, bouillon-agar
Summary of the method: as §1

[15] = system: Pseudomonas aeruginosa IFO 3445; test: Antibacterial activity, agar-dilution MIC, organism No. 15; conditions: Organism No. 15, bouillon-agar
Summary of the method: as §1

[16] = system: Pseudomonas aeruginosa NCTC 10490; test: Antibacterial activity, agar-dilution MIC, organism No. 16; conditions: Organism No. 16, bouillon-agar
Summary of the method: as §1

[17] = system: Pseudomonas aeruginosa PAO 1; test: Antibacterial activity, agar-dilution MIC, organism No. 17; conditions: Organism No. 17, bouillon-agar
Summary of the method: as §1

[18] = system: Proteus morganii IFO 3848; test: Antibacterial activity, agar-dilution MIC, organism No. 18; conditions: Organism No. 18, bouillon-agar
Summary of the method: as §1

[19] = system: Proteus mirabilis IFO 3849; test: Antibacterial activity, agar-dilution MIC, organism No. 19; conditions: Organism No. 19, bouillon-agar
Summary of the method: as §1

[20] = system: Proteus vulgaris OX-19; test: Antibacterial activity, agar-dilution MIC, organism No. 20; conditions: Organism No. 20, bouillon-agar
Summary of the method: as §1

[21] = system: Proteus vulgaris HX-19; test: Antibacterial activity, agar-dilution MIC, organism No. 21; conditions: Organism No. 21, bouillon-agar
Summary of the method: as §1

[22] = system: Proteus rettgeri IFO 3850; test: Antibacterial activity, agar-dilution MIC, organism No. 22; conditions: Organism No. 22, bouillon-agar
Summary of the method: as §1

[23] = system: Enterobacter aerogenes ATCC 13048; test: Antibacterial activity, agar-dilution MIC, organism No. 23; conditions: Organism No. 23, bouillon-agar
Summary of the method: as §1

[24] = system: Enterobacter cloacae 963; test: Antibacterial activity, agar-dilution MIC, organism No. 24; conditions: Organism No. 24, bouillon-agar
Summary of the method: as §1

[25] = system: Micrococcus luteus ATCC 9341; test: Antibacterial activity, agar-dilution MIC, organism No. 25; conditions: Organism No. 25, bouillon-agar
Summary of the method: as §1

[26] = system: Streptococcus pyogenes IFO 3340; test: Antibacterial activity, agar-dilution MIC, organism No. 26; conditions: Organism No. 26, bouillon-agar
Summary of the method: as §1

[27] = system: Streptococcus faecium IFO 3826; test: Antibacterial activity, agar-dilution MIC, organism No. 27; conditions: Organism No. 27, bouillon-agar
Summary of the method: as §1

[28] = system: Mycoplasma pneumoniae IID817; test: Antimycoplasmal activity, MIC by phenol red colour change, organism No. 28; conditions: Organism No. 28, PPLO broth + 1% glucose, 37° C.
Procedure: Mycoplasma pneumoniae IID817 was used as the test microorganism in a culture medium prepared by adding 1% of glucose to "PPLO broth (manufactured by Difco Co.) liquid culture medium" at 37° C. with phenol red as an indicator, thereby culturing the test microorganism.

[29] = system: Candida albicans IAM 4905; test: Antifungal activity, agar-dilution MIC, organism No. 29; conditions: Organism No. 29, bouillon-agar
Summary of the method: as §1

[30] = system: Aspergillus niger IFO 6342; test: Antifungal activity, agar-dilution MIC, organism No. 30; conditions: Organism No. 30, bouillon-agar
Summary of the method: as §1

Compound: [C-]#[N+]C12CC3(/C=C/C(=O)OCc4c(C)cc(C)cc4C)OC3C1O2 (stereo not drawn) [compound 11]
- MIC ([1]; Staphylococcus aureus, FDA209PJC1, read-out: Minimum Inhibitory Concentration): 3.13 µg/mL (≈ 9.62 µM)
- MIC ([2]; Staphylococcus aureus, read-out: Minimum Inhibitory Concentration): 6.25 µg/mL (≈ 19.2 µM)
- MIC ([3]; Staphylococcus aureus, MS353, read-out: Minimum Inhibitory Concentration): 3.13 µg/mL (≈ 9.62 µM)
- MIC ([4]; Streptococcus pyogenes, read-out: Minimum Inhibitory Concentration): 3.13 µg/mL (≈ 9.62 µM)
- MIC ([5]; Escherichia coli, NIHJJC2, read-out: Minimum Inhibitory Concentration): 25 µg/mL (≈ 76.8 µM)
- MIC ([6]; Escherichia coli, IAM1264, read-out: Minimum Inhibitory Concentration): 25 µg/mL (≈ 76.8 µM)
- MIC ([7]; Klebsiella pneumoniae, PCI602, read-out: Minimum Inhibitory Concentration): 6.25 µg/mL (≈ 19.2 µM)
- MIC ([8]; Salmonella enterica, read-out: Minimum Inhibitory Concentration): 12.5 µg/mL (≈ 38.4 µM)
- MIC ([9]; Salmonella enterica, TYPHI, read-out: Minimum Inhibitory Concentration): 6.25 µg/mL (≈ 19.2 µM)
- MIC ([10]; Salmonella enterica, PARATYPHI, read-out: Minimum Inhibitory Concentration): 12.5 µg/mL (≈ 38.4 µM)
- MIC ([11]; Salmonella, 8006, read-out: Minimum Inhibitory Concentration): 12.5 µg/mL (≈ 38.4 µM)
- MIC ([12]; Salmonella enterica, ENTERITIDIS, read-out: Minimum Inhibitory Concentration): 12.5 µg/mL (≈ 38.4 µM)
- MIC ([13]; Serratia marcescens, IAM1184, read-out: Minimum Inhibitory Concentration): 12.5 µg/mL (≈ 38.4 µM)
- MIC ([14]; Bacillus subtilis, ATCC6633, read-out: Minimum Inhibitory Concentration): 0.78 µg/mL (≈ 2.4 µM)
- MIC ([15]; Pseudomonas aeruginosa, IFO3445, read-out: Minimum Inhibitory Concentration): > 100 µg/mL
- MIC ([16]; Pseudomonas aeruginosa, NCTC10490, read-out: Minimum Inhibitory Concentration): > 100 µg/mL
- MIC ([17]; Pseudomonas aeruginosa, PAO1, read-out: Minimum Inhibitory Concentration): > 100 µg/mL
- MIC ([18]; Morganella morganii, IFO3848, read-out: Minimum Inhibitory Concentration): 3.13 µg/mL (≈ 9.62 µM)
- MIC ([19]; Proteus mirabilis, IFO3849, read-out: Minimum Inhibitory Concentration): 12.5 µg/mL (≈ 38.4 µM)
- MIC ([20]; Proteus vulgaris, OX19, read-out: Minimum Inhibitory Concentration): 6.25 µg/mL (≈ 19.2 µM)
- MIC ([21]; Proteus vulgaris, HX19, read-out: Minimum Inhibitory Concentration): 3.13 µg/mL (≈ 9.62 µM)
- MIC ([22]; Providencia rettgeri, IFO3850, read-out: Minimum Inhibitory Concentration): 12.5 µg/mL (≈ 38.4 µM)
- MIC ([23]; Klebsiella aerogenes, ATCC13048, read-out: Minimum Inhibitory Concentration): > 100 µg/mL
- MIC ([24]; Enterobacter cloacae, 963, read-out: Minimum Inhibitory Concentration): > 100 µg/mL
- MIC ([25]; Micrococcus luteus, ATCC9341, read-out: Minimum Inhibitory Concentration): < 0.1 µg/mL
- MIC ([26]; Streptococcus pyogenes, IFO3340, read-out: Minimum Inhibitory Concentration): 3.13 µg/mL (≈ 9.62 µM)
- MIC ([27]; Enterococcus faecium, IFO3826, read-out: Minimum Inhibitory Concentration): 6.25 µg/mL (≈ 19.2 µM)
- MIC ([28]; Mycoplasma, IID817, read-out: Minimum Inhibitory Concentration (MIC)): < 0.2 µg/mL
- MIC ([29]; Candida albicans, IAM4905, read-out: Minimum Inhibitory Concentration): 1.56 µg/mL (≈ 4.79 µM)
- MIC ([30]; Aspergillus niger, IFO6342, read-out: Minimum Inhibitory Concentration): 6.25 µg/mL (≈ 19.2 µM)

Compound: [C-]#[N+]C12CC3(/C=C/C(=O)Nc4ccc(SC)cc4)OC3C1O2 (stereo not drawn) [compound 76]
- Minimum Inhibitory Concentration [1]: 0.39 µg/mL
- Minimum Inhibitory Concentration [2]: 1.56 µg/mL
- Minimum Inhibitory Concentration [3]: 0.78 µg/mL
- Minimum Inhibitory Concentration [4]: 100 µg/mL
- Minimum Inhibitory Concentration [5]: > 200 µg/mL
- Minimum Inhibitory Concentration [6]: > 200 µg/mL
- Minimum Inhibitory Concentration [7]: 0.78 µg/mL
- Minimum Inhibitory Concentration [8]: > 200 µg/mL
- Minimum Inhibitory Concentration ([9]; Organism No. 9, bouillon-agar): 25 µg/mL
- Minimum Inhibitory Concentration ([10]; Organism No. 10, bouillon-agar): 0.78 µg/mL
- Minimum Inhibitory Concentration [11]: 1.56 µg/mL
- Minimum Inhibitory Concentration [12]: > 200 µg/mL
- Minimum Inhibitory Concentration [13]: > 200 µg/mL
- Minimum Inhibitory Concentration [14]: 12.5 µg/mL
- Minimum Inhibitory Concentration [15]: > 200 µg/mL
- Minimum Inhibitory Concentration [16]: > 200 µg/mL
- Minimum Inhibitory Concentration [17]: > 200 µg/mL
- Minimum Inhibitory Concentration [18]: 3.13 µg/mL
- Minimum Inhibitory Concentration [19]: > 200 µg/mL
- Minimum Inhibitory Concentration [20]: 1.56 µg/mL
- Minimum Inhibitory Concentration [21]: 0.78 µg/mL
- Minimum Inhibitory Concentration [22]: 100 µg/mL
- Minimum Inhibitory Concentration [23]: > 200 µg/mL
- Minimum Inhibitory Concentration [24]: 200 µg/mL
- Minimum Inhibitory Concentration [25]: 50 µg/mL
- Minimum Inhibitory Concentration [26]: 1.56 µg/mL
- Minimum Inhibitory Concentration [27]: 1.56 µg/mL
- Minimum Inhibitory Concentration (MIC) [28]: < 0.2
- Minimum Inhibitory Concentration [29]: 25 µg/mL
- Minimum Inhibitory Concentration [30]: 100 µg/mL
